From patent US20240415914A1, “Water Dispersible Cannabinoid Compositions” (priority 2021, published 2024)
Where two headings read alike, the source gives them in different places.

Key:
[1] = assay type: physicochemical; settings: stored at room temperature (21-25° C.)
Protocol: At each time period, 0.05 g of powder was dissolved in 10 ml-15 of ethanol, diluted to fall within the analytical range, and injected into the LCMSMS for analysis.

[2] = Stability of cannabinoid and Vitamin E components of Beverage 2 (AB Red) stored at 8° C. and 21-25° C., LCMSMS over 570 days
Protocol: The LCMSMS was calibrated for 0-50 ng/ml cannabinoids with the same resin material used in the preparation of the concentrates. At each time period, 100 μml of beverage was diluted with 10 ml of methanol and injected into the LCMSMS for analysis.

Which results are given for `CC(=O)Oc1c(C)c(C)c2c(c1C)CCC(C)(CCC[C@H](C)CCC[C@H](C)CCCC(C)C)O2` (stereo partly drawn) [α-Tocopheryl acetate]?
Stability in Powder Concentrate (content by LCMSMS) ([1]; day 0): 2.15 mg/g powder; Stability in Powder Concentrate (content by LCMSMS) ([1]; day 1): 2.19 mg/g powder; Stability in Powder Concentrate (content by LCMSMS) ([1]; day 2): 2.11 mg/g powder; Stability in Powder Concentrate (content by LCMSMS) ([1]; day 3): 2.18 mg/g powder; Stability in Powder Concentrate (content by LCMSMS) ([1]; day 5): 2.24 mg/g powder; Stability in Powder Concentrate (content by LCMSMS) ([1]; day 8): 2.23 mg/g powder; Stability in Powder Concentrate (content by LCMSMS) ([1]; day 9): 2.09 mg/g powder; Stability in Powder Concentrate (content by LCMSMS) ([1]; day 10): 2.09 mg/g powder; Stability in Powder Concentrate (content by LCMSMS) ([1]; day 11): 2.20 mg/g powder; Stability in Powder Concentrate (content by LCMSMS) ([1]; day 12): 2.17 mg/g powder; Stability in Powder Concentrate (content by LCMSMS) ([1]; day 15): 2.24 mg/g powder; Stability in Powder Concentrate (content by LCMSMS) ([1]; day 16): 2.15 mg/g powder; Stability in Powder Concentrate (content by LCMSMS) ([1]; day 17): 2.13 mg/g powder; Stability in Powder Concentrate (content by LCMSMS) ([1]; day 18): 2.10 mg/g powder; Stability in Powder Concentrate (content by LCMSMS) ([1]; day 19): 2.21 mg/g powder; Stability in Powder Concentrate (content by LCMSMS) ([1]; day 22): 2.11 mg/g powder; Stability in Powder Concentrate (content by LCMSMS) ([1]; day 23): 2.16 mg/g powder; Stability in Powder Concentrate (content by LCMSMS) ([1]; day 24): 2.09 mg/g powder; Stability in Powder Concentrate (content by LCMSMS) ([1]; day 25): 2.24 mg/g powder; Stability in Powder Concentrate (content by LCMSMS) ([1]; day 26): 2.10 mg/g powder; Stability in Powder Concentrate (content by LCMSMS) ([1]; day 29): 2.21 mg/g powder; Stability in Powder Concentrate (content by LCMSMS) ([1]; day 30): 2.08 mg/g powder; Stability in Powder Concentrate (content by LCMSMS) ([1]; day 60): 2.15 mg/g powder; Stability in Powder Concentrate (content by LCMSMS) ([1]; day 90): 2.24 mg/g powder; Stability in Powder Concentrate (content by LCMSMS) ([1]; day 120): 2.17 mg/g powder; Stability in Powder Concentrate (content by LCMSMS) ([1]; day 150): 2.18 mg/g powder; Stability in Powder Concentrate (content by LCMSMS) ([1]; day 180): 2.20 mg/g powder; Stability in Powder Concentrate (content by LCMSMS) ([1]; day 210): 2.15 mg/g powder; Stability in Powder Concentrate (content by LCMSMS) ([1]; day 240): 2.23 mg/g powder; Stability in Powder Concentrate (content by LCMSMS) ([1]; day 270): 2.13 mg/g powder; Stability in Powder Concentrate (content by LCMSMS) ([1]; day 300): 2.09 mg/g powder; Stability in Powder Concentrate (content by LCMSMS) ([1]; day 330): 2.15 mg/g powder; Stability in Powder Concentrate (content by LCMSMS) ([1]; day 360): 2.12 mg/g powder; Stability in Powder Concentrate (content by LCMSMS) ([1]; day 390): 2.21 mg/g powder; Stability in Powder Concentrate (content by LCMSMS) ([1]; day 420): 2.21 mg/g powder; Stability in Powder Concentrate (content by LCMSMS) ([1]; day 450): 2.07 mg/g powder; Stability in Powder Concentrate (content by LCMSMS) ([1]; day 480): 2.10 mg/g powder; Stability in Powder Concentrate (content by LCMSMS) ([1]; day 510): 2.15 mg/g powder; Stability in Powder Concentrate (content by LCMSMS) ([1]; day 540): 2.21 mg/g powder; Stability in Powder Concentrate (content by LCMSMS) ([1]; day 570): 2.13 mg/g powder; Stability of Vitamin Es in AB Red ([2]; 8° C., 0 days): 12.5 µg/mL; Stability of Vitamin Es in AB Red ([2]; 8° C., 1 days): 11.6 µg/mL; Stability of Vitamin Es in AB Red ([2]; 8° C., 2 days): 11.5 µg/mL; Stability of Vitamin Es in AB Red ([2]; 8° C., 3 days): 11.6 µg/mL; Stability of Vitamin Es in AB Red ([2]; 8° C., 5 days): 12.3 µg/mL; Stability of Vitamin Es in AB Red ([2]; 8° C., 8 days): 12.2 µg/mL; Stability of Vitamin Es in AB Red ([2]; 8° C., 9 days): 12.1 µg/mL; Stability of Vitamin Es in AB Red ([2]; 8° C., 10 days): 12.6 µg/mL; Stability of Vitamin Es in AB Red ([2]; 8° C., 11 days): 11.9 µg/mL; Stability of Vitamin Es in AB Red ([2]; 8° C., 12 days): 12.4 µg/mL; Stability of Vitamin Es in AB Red ([2]; 8° C., 15 days): 12.0 µg/mL; Stability of Vitamin Es in AB Red ([2]; 8° C., 16 days): 11.5 µg/mL; Stability of Vitamin Es in AB Red ([2]; 8° C., 17 days): 11.8 µg/mL; Stability of Vitamin Es in AB Red ([2]; 8° C., 18 days): 12.5 µg/mL; Stability of Vitamin Es in AB Red ([2]; 8° C., 19 days): 12.5 µg/mL; Stability of Vitamin Es in AB Red ([2]; 8° C., 22 days): 12.5 µg/mL; Stability of Vitamin Es in AB Red ([2]; 8° C., 23 days): 11.9 µg/mL; Stability of Vitamin Es in AB Red ([2]; 8° C., 24 days): 12.6 µg/mL; Stability of Vitamin Es in AB Red ([2]; 8° C., 25 days): 12.3 µg/mL; Stability of Vitamin Es in AB Red ([2]; 8° C., 26 days): 11.6 µg/mL; Stability of Vitamin Es in AB Red ([2]; 8° C., 29 days): 11.7 µg/mL; Stability of Vitamin Es in AB Red ([2]; 8° C., 30 days): 12.1 µg/mL; Stability of Vitamin Es in AB Red ([2]; 8° C., 60 days): 11.4 µg/mL; Stability of Vitamin Es in AB Red ([2]; 8° C., 90 days): 11.6 µg/mL; Stability of Vitamin Es in AB Red ([2]; 8° C., 120 days): 11.7 µg/mL; Stability of Vitamin Es in AB Red ([2]; 8° C., 150 days): 12.3 µg/mL; Stability of Vitamin Es in AB Red ([2]; 8° C., 180 days): 12.6 µg/mL; Stability of Vitamin Es in AB Red ([2]; 8° C., 210 days): 11.8 µg/mL; Stability of Vitamin Es in AB Red ([2]; 8° C., 240 days): 11.2 µg/mL; Stability of Vitamin Es in AB Red ([2]; 8° C., 270 days): 11.6 µg/mL; Stability of Vitamin Es in AB Red ([2]; 8° C., 300 days): 11.2 µg/mL; Stability of Vitamin Es in AB Red ([2]; 8° C., 330 days): 11.3 µg/mL; Stability of Vitamin Es in AB Red ([2]; 8° C., 390 days): 11.4 µg/mL; Stability of Vitamin Es in AB Red ([2]; 8° C., 420 days): 11.2 µg/mL; Stability of Vitamin Es in AB Red ([2]; 8° C., 450 days): 11.4 µg/mL; Stability of Vitamin Es in AB Red ([2]; 8° C., 480 days): 10.7 µg/mL; Stability of Vitamin Es in AB Red ([2]; 8° C., 510 days): 10.6 µg/mL; Stability of Vitamin Es in AB Red ([2]; 8° C., 540 days): 10.8 µg/mL; Stability of Vitamin Es in AB Red ([2]; 8° C., 570 days): 10.8 µg/mL; Stability of Vitamin Es in AB Red ([2]; 21-25° C., 0 days): 12.5 µg/mL; Stability of Vitamin Es in AB Red ([2]; 21-25° C., 1 days): 12.1 µg/mL; Stability of Vitamin Es in AB Red ([2]; 21-25° C., 2 days): 12.5 µg/mL; Stability of Vitamin Es in AB Red ([2]; 21-25° C., 3 days): 11.7 µg/mL; Stability of Vitamin Es in AB Red ([2]; 21-25° C., 5 days): 12.2 µg/mL; Stability of Vitamin Es in AB Red ([2]; 21-25° C., 8 days): 11.4 µg/mL; Stability of Vitamin Es in AB Red ([2]; 21-25° C., 9 days): 11.6 µg/mL; Stability of Vitamin Es in AB Red ([2]; 21-25° C., 10 days): 12.5 µg/mL; Stability of Vitamin Es in AB Red ([2]; 21-25° C., 11 days): 12.3 µg/mL; Stability of Vitamin Es in AB Red ([2]; 21-25° C., 12 days): 12.3 µg/mL; Stability of Vitamin Es in AB Red ([2]; 21-25° C., 15 days): 12.1 µg/mL; Stability of Vitamin Es in AB Red ([2]; 21-25° C., 16 days): 12.1 µg/mL; Stability of Vitamin Es in AB Red ([2]; 21-25° C., 17 days): 11.3 µg/mL; Stability of Vitamin Es in AB Red ([2]; 21-25° C., 18 days): 12.0 µg/mL; Stability of Vitamin Es in AB Red ([2]; 21-25° C., 19 days): 12.0 µg/mL; Stability of Vitamin Es in AB Red ([2]; 21-25° C., 22 days): 12.1 µg/mL; Stability of Vitamin Es in AB Red ([2]; 21-25° C., 23 days): 11.7 µg/mL; Stability of Vitamin Es in AB Red ([2]; 21-25° C., 24 days): 11.5 µg/mL; Stability of Vitamin Es in AB Red ([2]; 21-25° C., 25 days): 12.4 µg/mL; Stability of Vitamin Es in AB Red ([2]; 21-25° C., 26 days): 12.0 µg/mL; Stability of Vitamin Es in AB Red ([2]; 21-25° C., 29 days): 11.9 µg/mL; Stability of Vitamin Es in AB Red ([2]; 21-25° C., 30 days): 12.6 µg/mL; Stability of Vitamin Es in AB Red ([2]; 21-25° C., 60 days): 11.6 µg/mL; Stability of Vitamin Es in AB Red ([2]; 21-25° C., 90 days): 12.3 µg/mL; Stability of Vitamin Es in AB Red ([2]; 21-25° C., 120 days): 12.3 µg/mL; Stability of Vitamin Es in AB Red ([2]; 21-25° C., 150 days): 11.4 µg/mL; Stability of Vitamin Es in AB Red ([2]; 21-25° C., 180 days): 12.0 µg/mL; Stability of Vitamin Es in AB Red ([2]; 21-25° C., 210 days): 11.6 µg/mL; Stability of Vitamin Es in AB Red ([2]; 21-25° C., 240 days): 11.3 µg/mL; Stability of Vitamin Es in AB Red ([2]; 21-25° C., 270 days): 11.4 µg/mL; Stability of Vitamin Es in AB Red ([2]; 21-25° C., 300 days): 11.2 µg/mL; Stability of Vitamin Es in AB Red ([2]; 21-25° C., 330 days): 11.6 µg/mL; Stability of Vitamin Es in AB Red ([2]; 21-25° C., 390 days): 11.3 µg/mL; Stability of Vitamin Es in AB Red ([2]; 21-25° C., 420 days): 11.3 µg/mL; Stability of Vitamin Es in AB Red ([2]; 21-25° C., 450 days): 11.2 µg/mL; Stability of Vitamin Es in AB Red ([2]; 21-25° C., 480 days): 10.4 µg/mL; Stability of Vitamin Es in AB Red ([2]; 21-25° C., 510 days): 10.4 µg/mL; Stability of Vitamin Es in AB Red ([2]; 21-25° C., 540 days): 10.6 µg/mL; Stability of Vitamin Es in AB Red ([2]; 21-25° C., 570 days): 10.6 µg/mL
